# Values quoted from earlier work in patent publication US9149493B2, “Compositions for bowel cleansing and use thereof” (ALFA WASSERMANN SPA, priority 2011, dated 2015).
# Conditions: administered alone; eliminated unchanged in urine
substance,measurement,value
citric acid and sodium citrate [citrates],absorption of citrates in the small intestine,almost entirely absorbed
